Results as given in patent US12258425B2, “Peptide compositions and methods of use” (priority 2015, dated 2025).
Counter-ions that a name gives are not always drawn. Where a SMILES comes first, the peptide text is derived from it.

Tests used:
[1] = test system: photoreceptor cells in the detached portion of the retina; assay: Rat retinal detachment model, TUNEL count of apoptotic cells; assay type: in vivo, rats; settings: for Cells positive for TUNEL in detached retina: Example 10, subretinal, three days
Description: Briefly, rodents were anesthetized with a 50:50 mix of ketamine (100 mg/mL) and xylazine (20 mg/mL), and pupils were dilated with topical phenylephrine (2.5%) and tropicamide (1%). A 20-gauge microvitreoretinal blade (Walcott Scientific, Marmora, NJ) was used to create a sclerotomy 2 mm posterior to the limbus, carefully avoiding lens damage.
Under direct visualization through an operating microscope, a subretinal injector (Glaser, 32-gauge tip; BD Ophthalmic Systems, Sarasota, FL) was introduced through the sclerotomy into the vitreous cavity and then through a peripheral retinotomy into the subretinal space. Sodium hyaluronate (10 mg/mL) was slowly injected to detach the neurosensory retina from the underlying retinal pigment epithelium.
In all experiments, approximately one-third to one-half of the superonasal neurosensory retina was detached. In all animals, detachments were created in the same location to allow for direct comparison of retinal cell counts. Detachments were created in the left eye, leaving the right eye as the control. […]
After three days rats were euthanized, retinas were excised, fixed, sectioned, and stained for TUNEL assays. Areas of detached retina were counted for number of apoptotic cells. Each experiment involved 4 fields from each of 4 sections obtained from 5 or 6 retinas for each dosing group.

[2] = pH-solubility titration (visual: precipitate, turbidity, viscosity, gel); assay type: physicochemical
Description: Compound 1 obtained as a trihydrochloride salt, as described in Example 1, and was screened for aqueous solubility at different pHs, by carrying out pH titrations according to the following protocol. In some cases Met-12 was run through an identical experimental procedure to determine its solubility pH profile under the same conditions.
Compound 1 (10 mg) was dissolved in water (270-900 ? L) in a 2 mL clear plastic centrifuge tube with vortexing to give a pH ˜2.4 solution. […] This solution was then diluted with the appropriate amount of cosolvent or other excipient (sugar, surfactant etc.) to produce a clear acidic solution of 10 mg of Compound 1 in […] of the test solution at room temperature ([…]). Small aliquots of a basic solution (usually sodium hydroxide 1.0 M or 0.1 M, but sometimes other bases when investigating buffers) were added using a microliter syringe. Between additions the solution was mixed by vortexing, and the solution was inspected visually for precipitates of various types, turbidity, as a likely sign of microprecipitates, and viscosity to detect gel formation. pH measurements were taken at all these observation points. Some experiments titrated from the endogenous low pH to pH 10, but later titrations were not carried much above pH 7, or sometimes even lower.

[3] = test system: FasL-induced caspase 8 activation in 661W cells; assay: Blockade of FasL-induced caspase 8 activation in 661W cells; assay type: cell-based; settings: for Concentration of maximal inhibition of FasL-induced caspase 8 activation / EC50: FasL 500 ng/mL, 48 hours; for EC50: trihydrochloride, unbuffered solution in DMSO, read-out: EC50, inhibition of FasL-induced caspase 8 activation
Description: Cell Culture. The 661W photoreceptor cell line was generously provided by Muayyad Al-Ubaidi (Department of Cell Biology, University of Oklahoma Health Sciences Center, Oklahoma City, OK). The 661W cell line is a photoreceptor line that has been immortalized by the expression of SV40-T antigen under control of the human interphotoreceptor retinol-binding protein (IRBP) promoter (Al-Ubaidi et al.,J Cell Biol., 119(6):1681-1687 (1992), herein incorporated by reference in its entirety). 661W cells express cone photoreceptor markers, including blue and green cone pigments, transducin, and cone arrestin (Tan et al., Invest Ophtholmol Vis Sci., (3):764-768 (2004), herein incorporated by reference in its entirety), and can undergo caspase-mediated cell death (Kanan et al., Invest Ophthalmol Vis Sci., 48(1):40-51 (2007), herein incorporated by reference in its entirety).
The 661W cell line was maintained in Dulbecco's modified Eagle's medium containing 10% fetal bovine serum, 300 mg/L glutamine, 32 mg/L putrescine, 40 μL/L β-mercaptoethanol, 40 μg/L hydrocortisone 21-hemisuccinate, and 40 μg/L progesterone. The media also contained penicillin (90 U/mL) and streptomycin (0.09 mg/mL). Cells were grown at 37° C. in a humidified atmosphere of 5% CO2 and 95% air.
Activity Assays. Caspase 3, caspase 8 and caspase 9 activities were measured with colorimetric tetrapeptide cleavage assay kits, per the manufacturer's instructions (BioVision, Mountain View, Calif). Total (661W/retinal) protein was extracted as per a previously published protocol (Zacks et al., IOVS, 44(3):1262-1267 (2003), herein incorporated by reference in its entirety). One hundred micrograms of total (661W/retinal) protein was incubated with caspase 3 (DEVD-pNA), caspase 8 (IETD-pNA) or caspase 9 substrates (LEHD-pNA) at 200 μM final concentration for 60 minutes. Absorbance was measured at 405 nm in a microplate reader (Spectra-MAX 190, Molecular Devices, Sunnyvale, Calif). As a negative control, (661W/retinal) protein was incubated with assay buffer without the tetrapeptide. A second negative control was used in which assay buffer alone was incubated with the tetrapeptide. As a positive control, purified caspase 3, caspase 8, or caspase 9 was incubated with the tetrapeptide alone.
661W cells were treated with a FasL. […] Activity of caspase 8 measured in 661W cell lysates increased with increasing concentration of FasL, peaking with the 500 ng/ml dose. 661W cells were treated with 500 ng/ml FasL and measured activity levels at various time points.
The assay system described above was used as an in vitro screening system to find potential inhibitors of the Fas-induced Caspase 8 activation pathway. […] This activity is very dependent on the formulation in which the Met-12 peptide is delivered. The final formulation for Met-12 was diluted 1000-fold for this assay, and to get to the top of the dose curve, which is normally 100 μM, one uses lesser dilutions.

[4] = 5 μg in 5 μL DMSO, trihydrochloride

Question: What does the source list for CC[C@H](C)[C@H](NC(=O)[C@H](Cc1ccc(O)cc1)NC(=O)[C@H](CC(N)=O)NC(=O)[C@@H](NC(=O)[C@H](C)NC(=O)CNC(=O)[C@H](CC(C)C)NC(=O)[C@H](Cc1ccc(O)cc1)NC(=O)[C@@H](NC(=O)[C@H](Cc1cnc[nH]1)NC(=O)[C@@H](N)Cc1cnc[nH]1)[C@@H](C)CC)C(C)C)C(=O)N[C@@H](Cc1ccc(O)cc1)C(N)=O [Compound 1 triacetate, His-His-Ile-Tyr-Leu-Gly-Ala-Val-Asn-Tyr-Ile-Tyr-NHz] (H-HHIYLGAVNYIY-NH2)?
Answer: Apoptotic cells in detached retina ([1]; Example 12, 1 μg in DMSO): 1.2%; Inherent pH of the salt ([2]; 2 mg/mL in water): 3.4-3.6 pH

Question: Which results are given for CC[C@H](C)[C@H](NC(=O)[C@H](Cc1ccc(O)cc1)NC(=O)[C@H](CC(N)=O)NC(=O)[C@@H](NC(=O)[C@H](C)NC(=O)CNC(=O)[C@H](CC(C)C)NC(=O)[C@H](Cc1ccc(O)cc1)NC(=O)[C@@H](NC(=O)[C@H](Cc1c[nH]cn1)NC(=O)[C@@H](N)Cc1c[nH]cn1)[C@@H](C)CC)C(C)C)C(=O)N[C@@H](Cc1ccc(O)cc1)C(=O)O [Met-12, HHIYLGAVNYIY, reference compound] (H-HHIYLGAVNYIY-OH; N-terminus assumed)?
Answer: Loss in activity of a non-solution formulation ([3]; 10 mg/mL in 20 mM citrate buffer pH 2.8, in vitro and in vivo assays): at least a fivefold loss in activity; Caspase 8 activation remaining relative to baseline ([3]; Met-12 trihydrochloride at 10 μM, depending on the assay): 0-25%; Dose at which maximum inhibition is achieved ([3]; aqueous based formulations): 50 to 100 µM; Concentration of maximal inhibition of FasL-induced caspase 8 activation ([3]; trihydrochloride in DMSO): 10 µM; EC50 [3]: 4 µM; Cells positive for TUNEL in detached retina [1, 4]: over 1%; Aqueous solubility (in words) [2]: extremely poor aqueous solubility; pH of onset of gelling ([2]; 70% Propylene glycol): 3.2 pH; pH to which a clear mobile solution persists ([2]; aqueous solution titrated with sodium hydroxide): 3.0 pH

Question: Which “Most potent concentration (FIG. 3)” value ([3]; 10 mg/mL in 1% PS-20, 3% PG, pH 4) does the source give for CC[C@H](C)[C@H](NC(=O)[C@H](Cc1ccc(O)cc1)NC(=O)[C@H](CC(N)=O)NC(=O)[C@@H](NC(=O)[C@H](C)NC(=O)CNC(=O)[C@H](CC(C)C)NC(=O)[C@H](Cc1ccc(O)cc1)NC(=O)[C@@H](NC(=O)[C@H](Cc1cnc[nH]1)NC(=O)[C@@H](N)Cc1cnc[nH]1)[C@@H](C)CC)C(C)C)C(=O)N[C@@H](Cc1ccc(O)cc1)C(N)=O [Compound 1 trihydrochloride, His-His-Ile-Tyr-Leu-Gly-Ala-Val-Asn-Tyr-Ile-Tyr-NHz] (H-HHIYLGAVNYIY-NH2) here?
Answer: The value was 3 µM.

Question: And the “Dose potency and efficacy versus Met-12 or Compound 1 in DMSO (FIG. 2)” value ([3]; 10 mg/mL in 2% Polysorbate 20 and 2% PG at pH 4)?
Answer: The value was “both considerably more dose potent, but also more efficacious”.

Question: What about the “Course of activity with concentration (FIG. 3)” value ([3]; 10 mg/mL in 3% PS-20, 3% PG, pH 4, top dose 30) of the same compound?
Answer: Its value is “continued increase in activity”.

Question: What about the “Potency relative to Met-12 by 1C50” value ([3]; 661W cells, both in DMSO) of the same compound?
Answer: The value was 10 fold.

Question: And the “Potency relative to Met-12 by concentration of maximal inhibition” value ([3]; 661W cells, both in DMSO)?
Answer: The value was “approximately 3 fold”.

Question: And the “Dose potency versus Met-12 (FIG. 2)” value ([3]; DMSO (20 mg/mL))?
Answer: Its value is “somewhat more dose potent than Met-12”.

Question: What about the “Activity above 30 μM” value ([3]; trihydrochloride in DMSO, U-shaped curve) of the same compound?
Answer: Its value is “almost inactive”.

Question: And the “Concentration of maximal inhibition of FasL-induced caspase 8 activation” value ([3]; trihydrochloride in DMSO)?
Answer: The value was 3 µM.

Question: What about the EC50 [3] of the same compound?
Answer: Its EC50 is 0.4 µM.

Question: What about the “Cells positive for TUNEL in detached retina” value (shortened to “Cells positive for TUNEL”) ([1]; 0.5 μg in DMSO) of the same compound?
Answer: The value was 0.58%.

Question: And the “Cells positive for TUNEL” value ([1]; 1 μg in DMSO)?
Answer: Its value is 1.14%.

Question: And the “Cells positive for TUNEL” value [1, 4]?
Answer: Its value is 0.82%.

Question: What about the “Cells positive for TUNEL” value ([1]; 10 μg in DMSO) of the same compound?
Answer: The value was 0.9%.

Question: And the “Apoptotic cells in detached retina” value ([1]; Example 11, 1 μg in 2% propylene glycol, 2% poloxamer 407, pH 4)?
Answer: Its value is 0.4%.

Question: And the “Apoptotic cells in detached retina” value ([1]; Example 11, 1 μg in 3% propylene glycol, 3% PS-20, pH 4.0)?
Answer: Its value is 0.01%.

Question: And the “Apoptotic cells in detached retina” value ([1]; Example 11, 5 μg in 2% propylene glycol, 2% poloxamer 407, pH 4)?
Answer: The value was 0.3%.

Question: And the “Apoptotic cells in detached retina” value ([1]; Example 11, 5 μg in 3% propylene glycol, 3% PS-20, pH 4.0)?
Answer: The value was 2.9%.

Question: And the “Apoptotic cells in detached retina” value ([1]; Example 11, 5 μg in DMSO)?
Answer: Its value is 2.5%.

Question: And the “Apoptotic cells in detached retina” value ([1]; Example 12, 1 μg in DMSO)?
Answer: The value was 2.4%.
